From patent US8987193B2, “Nisin derivatives and the use thereof” (University College Cork—National University of Ireland, Cork, priority 2008, dated 2015) come the findings set out here.

The subject of assay [1] is L. monocytogenes CBC1. Nature of the assay: Deferred antagonism assay. The class given is cell-based, Listeria monocytogenes. Also noted: key: + = Enhanced bioactivity relative to control; − = Bioactivity equal to or less than control; NA = no activity evident. The conditions noted are these: producing strain; L. mono CBC1. A digest of the protocol:
(§1)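 Well-diffusion testing of purified nisin variants in 0.005% acetic acid, serially diluted, 37° C overnight; AU/ml = reciprocal of last dilution with definite zone × 20. Deferred antagonism: overnight GM17 colonies overlaid with seeded soft agar (0.75%); zone = clearing diameter minus 5 mm.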

Assay [2] deals with L. monocytogenes CBC2. Nature of the assay: Deferred antagonism assay. Type of assay: cell-based, Listeria monocytogenes. More on the design: key: + = Enhanced bioactivity relative to control; − = Bioactivity equal to or less than control; NA = no activity evident. The conditions noted are these: producing strain; L. mono CBC2. A digest of the protocol: as §1
Assay [3] relates to L. monocytogenes CBC3. Nature of the assay: Deferred antagonism assay. More on the design: key: + = Enhanced bioactivity relative to control; − = Bioactivity equal to or less than control; NA = no activity evident. Type of assay: cell-based, Listeria monocytogenes. The conditions noted are these: producing strain; L. mono CBC3. A digest of the protocol:
as §1

Assay [4] concerns indicator strains. Briefly: Deferred antagonism assays, various indicator strains (summary). The class given is cell-based. Conditions: for bioactivity of the producing strain, in words: in general / against the strains tested; for Strain(s) against which the derivative (producing strain) displays enhanced bioactivity: relative to nisin A-producing control, value = strains listed. The essentials:
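Producer strains were replicated on GM17 or GM17 x-gal agar, grown overnight, then overlaid with GM17, BHI, TS or MH soft agar (0.75% w/v) seeded with the indicator strain. Zone size was taken as the clearing diameter minus the diameter of bacterial growth (5 mm).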

Assay [5] relates to Staph. aureus DPC5245. Briefly: Deferred antagonism assay. The class given is cell-based. The conditions noted are these: producing strain; diameter of zone minus 5 mm; average of duplicates; St. aureus DPC5245. As for the experimental part:
(§2) Deferred antagonism assays were performed by replicating strains on GM17 or GM17 x-gal agar plates and allowing them to grow overnight before overlaying with either GM17/BHI/TS/MH agar (0.75% w/v agar) seeded with the appropriate indicator strain. Zone size was calculated as the diameter of the zone of clearing minus the diameter of bacterial growth (5 mm) For higher throughput screening of N20PXX, XM21VX, XXK22T and XXX banks deferred antagonism assays were performed by replicating strains using a 96 pin replicator (Boekel) or spotting 5 μl of a fresh overnight culture on GM17 agar plates and allowing them to grow overnight. […] Additional sets of indicators were employed to further assess/reassess the bioactivity of a number of strains. […] For well-diffusion assays molten agar was cooled to 48° C. and seeded with the appropriate indicator strain. The inoculated medium was rapidly transferred into sterile Petri plates in 50 ml volumes, allowed to solidify and dried. Wells (4.6 mm in diameter) were then made in the seeded plates. Purified nisin and mutant nisins were resuspended in 0.005% acetic acid, serially diluted, 50 μl volumes were dispensed into the aforementioned wells and the plates incubated at 37° C. overnight. Bioactivity was expressed as arbitrary units/ml (AU/ml) and calculated as the reciprocal of the highest dilution that gave a definite zone multiplied by the conversion factor (i.e. 20 when 50 μl was used) (Ryan et al., 1996).
(§3) As a consequence of the enhanced activities of K22T and K22S, a more in-depth investigation of this region was carried out. Saturation mutagenesis was undertaken to create a bank of nisin A hinge derivatives containing the vast majority of possible amino acid substitutions for each position. Although pPTPL was used successfully for random mutagenesis, its relatively large size of approx 10.5 kb was considered unsuitable for the complete plasmid PCR amplification approach utilized for saturation mutagenesis. A smaller (approx 6 kb) E. coli-L. lactis shuttle vector pCI372 was considered to be potentially more useful. Its suitability with respect to the in trans expression of nisA was confirmed by the ability of pDFO5 to restore the nisin positive phenotype. Saturation mutagenesis was performed on each codon using pDF05 and oligonucleotides (Table 5) that replace the specific codon with a NNK triplet, potentially encoding all 20 standard amino acids. Following complete plasmid amplification and introduction into the intermediate Top10 host, sequence analysis of a pooled bank of pDF05 derivatives confirmed randomization. Introduction of these variants into L. lactis NZ9800 allowed the expression of mutant nisin A peptides for further analysis. […] 46 residue conversions were isolated. All strains, regardless of bioactivity, were assessed with a view to comprehensively assessing the consequences of each individual hinge alteration.
(§4) Values are an average of duplicate experiments and represent zone size (diameter of zone minus diameter of bacterial growth (i.e. 5 mm) relative to that of the NZ9800 pCI372nisA control. X=Mutants not identified.

Assay [6] has as its system Staph. aureus ST528 (MRSA). Nature of the assay: Deferred antagonism assay. Conditions: producing strain, diameter of zone minus diameter of bacterial growth (5 mm), average of duplicates. The class given is cell-based. The method, then: as §2, §3, §4
For assay [7], the system named is Strep. agalactiae ATCC13813. Nature of the assay: Deferred antagonism assay. The class given is cell-based. Conditions: producing strain, diameter of zone minus 5 mm, average of duplicates. As for the experimental part: as §2, §3, §4
The test system of assay [8] is S. aureus CBC4. Briefly: Deferred antagonism assay. The class given is cell-based. Also noted: key: + = Enhanced bioactivity relative to control; − = Bioactivity equal to or less than control; NA = no activity evident. The conditions noted are these: producing strain. A digest of the protocol:
as §1

For assay [9], the system named is L. lactis CBC8. Nature of the assay: Deferred antagonism assay. Type of assay: cell-based. Also noted: key: + = Enhanced bioactivity relative to control; − = Bioactivity equal to or less than control; NA = no activity evident. Conditions: producing strain. The essentials:
as §1

In assay [10] the test system is L. lactis CBC7. Briefly: Deferred antagonism assay. The conditions noted are these: producing strain. More on the design: key: + = Enhanced bioactivity relative to control; − = Bioactivity equal to or less than control; NA = no activity evident. The class given is cell-based. The essentials: as §1
Assay [11] concerns C. sporogenes CBC5. Briefly: Deferred antagonism assay. Type of assay: cell-based, Clostridium sporogenes. More on the design: key: + = Enhanced bioactivity relative to control; − = Bioactivity equal to or less than control; NA = no activity evident. The conditions noted are these: producing strain.
Assay [12] concerns L. plantarum CBC6. Nature of the assay: Deferred antagonism assay. Type of assay: cell-based, Lactobacillus plantarum. More on the design: key: + = Enhanced bioactivity relative to control; − = Bioactivity equal to or less than control; NA = no activity evident. Conditions: producing strain. A digest of the protocol: as §1

Entries after “also recorded” stand apart in the source; their conditions may differ. Ends that are not written are not given here.

“K22D: nisin A derivative, hinge substitution K22D; peptide not detected by CMS (ITSISLCTPGCKTGALMGCNMDTATCHCSIHVSK; cysteine pairing not given here; also: lantibiotic nisin-A; UniProt P13068 24-57, looked up, variant K22D)”: the “Bioactivity relative to control” value in assay [1], in assay [2], in assay [3], in [8], in [9] and in assay [10] was “−” throughout. The “Bioactivity relative to control” value in assay [11] and in assay [12] was “−” in each case. Moreover, the “bioactivity of the producing strain, in words” value (“bioactivity … in words” below) in assay [4] is reported as “devoid of bioactivity”. For the same substance, the “zone size relative to that of the NZ9800 pCI372nisA control” value (“zone size relative to that” below) in [5], in [6] and in [7] was 0% throughout.

Regarding “M21E: nisin A derivative, hinge substitution M21E (ITSISLCTPGCKTGALMGCNEKTATCHCSIHVSK; cysteine pairing not given here; also: lantibiotic nisin-A; UniProt P13068 24-57, looked up, variant M21E)”, the “Bioactivity relative to control” value in assay [1], in assay [2], in assay [3], in [8], in assay [9] and in [10] was “−” each time. Besides, the “Bioactivity relative to control” value in [11] and in assay [12] was “−” each time. Moreover, the “bioactivity … in words” value in [4] is listed as “loss of bioactivity”. The “zone size relative to that” value in [5], in assay [6] and in [7] was 0% each time.

In the case of “N20L: nisin A derivative, hinge substitution N20L (ITSISLCTPGCKTGALMGCLMKTATCHCSIHVSK; cysteine pairing not given here; also: lantibiotic nisin-A; UniProt P13068 24-57, looked up, variant N20L)”, the “Bioactivity relative to control” value in assay [1], in [2], in assay [3], in [8], in assay [9] and in assay [10] was “−” each time. Besides, the “Bioactivity relative to control” value in [11] and in [12] was “−” throughout. The “bioactivity … in words” value in assay [4] is given as “retention of relatively high levels of bioactivity”. The “zone size relative to that” value worked out at 69.5% in assay [5], 43% in [6] and 69% in [7].

For the substance “N20V: nisin A derivative, hinge substitution N20V (ITSISLCTPGCKTGALMGCVMKTATCHCSIHVSK; cysteine pairing not given here; also: lantibiotic nisin-A; UniProt P13068 24-57, looked up, variant N20V)”, the “Bioactivity relative to control” value in assay [1], in assay [2], in [3], in [8], in assay [9] and in assay [10] was “−” in each case. The “Bioactivity relative to control” value in [11] and in [12] was “−” throughout. The “bioactivity … in words” value in [4] is “reduced bioactivity levels”. Also, the figures for the “zone size relative to that” value in assay [5], in assay [6] and in assay [7] were 77%, 68% and 63%, respectively.

Turning to “NisinA K22G (ITSISLCTPGCKTGALMGCNMGTATCHCSIHVSK; cysteine pairing not given here; also: lantibiotic nisin-A; UniProt P13068 24-57, looked up, variant K22G) [nisin A derivative, hinge substitution K22G]”, the “Bioactivity relative to control” value is “−” in assay [1]; “−” in assay [2]; “−” in assay [3]; “−” in assay [8]; “+” in assay [9]; “+” in assay [10]. Moreover, the “Bioactivity relative to control” value in assay [11] and in assay [12] was “−” throughout. In addition, the “relative bioactivity against the indicators of Table 6” value in [4] (Staph. aureus ST528, DPC5245 and Strep. agalactiae ATCC 13813 taken together) is on record as “approximately 120%”. For the same substance, the “Strain(s) against which the derivative (producing strain) displays enhanced bioactivity” value in assay [4] is “L. lactis CBC7 and CBC8; also recorded: DPC5425, Strep. agalactiae ATCC 13813”. Also, the “zone size relative to that” value turned out to be 112% in assay [5], 118.5% in assay [6] and 126% in assay [7].

Consider “NisinA K22L (ITSISLCTPGCKTGALMGCNMLTATCHCSIHVSK; not fully specified; cysteine pairing not given here; also: lantibiotic nisin-A; UniProt P13068 24-57, looked up, variant K22L) [nisin A derivative, hinge substitution K22L]”, for which the “Bioactivity relative to control” value in assay [1] was “−”; in assay [2], “−”; in assay [3] it was “−”; in assay [8], “−”; in [9], “+”; in [10] it was “−”. The “Bioactivity relative to control” value in [11] and in assay [12] was “−” in each case. In [4], the “bioactivity … in words” value is “retention of relatively high levels of bioactivity”. Also, in assay [4], the “Strain(s) against which the derivative (producing strain) displays enhanced bioactivity” value is on record as “L. lactis CBC8”. The “zone size relative to that” value in [5] stood at 89%; in [6], 93.5%; in assay [7] it was 108%.
